From article PMC8158484, “Activity Components from Gynostemma pentaphyllum for Preventing Hepatic Fibrosis and of Its Molecular Targets by Network Pharmacology Approach” (Molecules, 2021)
Read-outs that look alike come from different tables or passages of the source.

What was measured:
Type in all cases: cell-based, human
t-HSC/Cl-6 cells [1] = test: MTT cell proliferation assay, activated t-HSC/Cl-6 cells; conditions: mean ± SD, read-out: Inhibitory activity (IC50) in activated t-HSC/Cl-6 cells
Method: (§1) The cell viability was assessed with the MTT assay. The human hepatic stellate cells (t-HSC/Cl-6) and human normal liver cells (LO2) bought from the Cell Bank of Chinese Academy of Sciences (Shanghai, China) were seeded in 96-well plates for 24 h and cultured with high glucose including 10% fetal bovine serum, and 1% penicillin/streptomycin were used to culture cells at 37 °C under 5% CO2 and then were treated with serial dilutions of the compounds (25, 50, 100, 200, 400 μM) for another 36 h. For MTT assay, ten microliters of MTT reagent ([…]) was added to each well after removing all the liquid in the wells, and incubated at 37 °C in a humidified atmosphere of 5% CO2 air for 4 h. At the end of incubation, the growth medium was removed and replaced with 100 μL of DMSO at room temperature and agitating on a vortex for 20 min. The absorbance was determined at 490 nm as reference on a Bio-Rad micro-plate reader.

LO2 cells [2] = test: MTT cell proliferation assay, LO2 normal liver cells; conditions: for IC50: 36 h, MTT, read-out: Inhibitory activity (IC50) in LO2 cells
Method: as §1

t-HSC/C1-6 cells = test: Cell cycle analysis by flow cytometry (propidium iodide); conditions: 50 μM compound, 36 h; control group 1.04%
Method: The cell cycle analysis was performed using a previous method. The t-HSC/C1-6 cells were cultured in the presence of 50 μM compound 19 and DMSO for 12 h, 24 h, and 36 h. Briefly, treated and untreated cells were trypsinized, harvested, and washed with PBS. Then the cells were fixed with 75% ethanol overnight at […]. Fixed cells were washed with PBS and stained with propidium iodide solution in the dark for 4 h. Cell cycle distribution was analyzed using FACScan (Becton Dickinson Immunocytometry Systems, San Jose, CA, USA).

t-HSC/Cl-6 cells [3] = test: Western blotting of cell cycle, PI3K/Akt and caspase proteins
Method: RIPA lysis buffer was used to extract total cellular proteins, and the protein concentration was determined by bicinchoninic acid. Protein samples (20 μg/lane) were loaded onto 10% SDS–PAGE gels for electrophoresis and then the transmembrane was conducted. After that, blocking of polyvinylidene fluoride (PVDF) membrane was carried out using 5% bovine serum albumin in Tris-buffered saline Tween-20 (TBST) buffer for 1 h, subsequently probing with a primary antibody (1:1000 dilution), such as p-PI3K, p-Akt, Cl-caspase-3, Cl-caspase-9, Cl-PARP, CDK4, Cyclin D1, or P21, at 4 °C overnight. Then, TBTS was used to wash the membrane. The PVDF membranes were incubated with the secondary antibody (1:5000 dilution) for 2 h. X-ray films were employed to develop the signals.

LO2 cells [4] = test: Cell apoptosis analysis: cell morphology and DAPI nuclear staining, LO2 cells; conditions: 36 h
Method: (§2) For cell morphology analysis, t-HSC/C1-6 cells and LO2 cells were grown in 6-well plates. After 24 h, compound 19 was incubated with the cells for another 36 h and 0.1% DMSO was used to culture control cells. […] Then the cells were rinsed with PBS and resuspended in 1 mL of 0.1% DAPI prepared in methanol for 15 min. PBS was used to wash the cells three times. Nuclear morphology was observed by a fluorescent microscope (Olympus BH-2, Osaka, Japan).

t-HSC/Cl-6 cells [5] = test: Cell apoptosis analysis: cell morphology and DAPI nuclear staining, t-HSC/Cl-6 cells; conditions: 36 h
Method: as §2

[6] = Rattus norvegicus, T-HSC/Cl-6, 36 h
[7] = dose-dependent manner as printed

With `CC(C)=CC1CC(O)(C2CCC3(C)C2CCC2C4(C)CCC(OC5OC(CO)C(O)C(OC6OCC(O)C(O)C6O)C5OC5OC(C)C(O)C(O)C5O)C(C)(C)C4CCC23C)C(=O)O1` (centres unmarked) [Compound 6] the IC50 (t-HSC/Cl-6 cells [1]; 36 h) was 99.9 ± 4.5 µM and the IC50 (LO2 cells [2]) was > 200 µM.
For `CC(C)=CCCC(O)(COC1OC(CO)C(O)C(O)C1O)C1CCC2(C)C1CCC1C3(C)CCC(OC4OC(CO)C(O)C(OC5OCC(O)C(O)C5O)C4OC4OC(C)C(O)C(O)C4O)C(C)(C)C3CCC12C` (centres unmarked) [Compound 13], the IC50 (t-HSC/Cl-6 cells [1]; 36 h) was 106 ± 2.6 µM and the IC50 (LO2 cells [2]) was > 200 µM.
With `CC(C)=CCCC(O)(COC1OC(CO)C(O)C(O)C1O)C1CCC2(C)C1CCC1C3(C)CCC(OC4OC(CO)C(O)C(OC5OCC(O)C(O)C5O)C4OC4OC(C)C(O)C(O)C4O)C(C)(C)C3CCC12C` (centres unmarked) [Compound 12] the IC50 (t-HSC/Cl-6 cells [1]; [6]) was > 200 µM and the IC50 (LO2 cells [2]; Homo sapiens, L02) was > 200 µM.
With `C=C(C)C=CCC(O)(COC1OC(CO)C(O)C(O)C1O)C1CCC2(C)C1CCC1C3(C)CCC(OC4OC(CO)C(O)C(OC5OCC(O)C(O)C5O)C4OC4OCC(O)C(O)C4O)C(C)(C)C3CCC12C` (centres unmarked) [Compound 18] the IC50 (t-HSC/Cl-6 cells [1]; [6]) was 58 ± 2.9 µM and the IC50 (LO2 cells [2]; Homo sapiens, L02) was > 200 µM.
For `C=C(C)OCC1OC(OC2CCC3(C)C(CCC4(C)C3CCC3C(C(O)(CCC=C(C)C)COC5OC(CO)C(O)C(O)C5O)CCC34C)C2(C)C)C(OC2OC(C)C(O)C(O)C2O)C(OC2OCC(O)C(O)C2O)C1O` (centres unmarked) [Compound 3], the IC50 (t-HSC/Cl-6 cells [1]; [6]) was > 200 µM and the IC50 (LO2 cells [2]; Homo sapiens, L02) was > 200 µM.
`CC(C)=CCCC(O)(CO)C1CCC2(C)C1CCC1C3(C=O)CCC(OC4OCC(O)C(O)C4OC4OC(C)C(O)C(O)C4O)C(C)(C)C3CCC12C` (centres unmarked) [Compound 2] was tested, and the IC50 (t-HSC/Cl-6 cells [1]; [6]) was 50.4 ± 1.4 µM and the IC50 (LO2 cells [2]; Homo sapiens, L02) was > 200 µM.
For `CCCCOC1OC(C=C(C)C)CC1(O)C1CCC2(C)C1CCC1C3(C)CCC(OC4OC(CO)C(O)C(OC5OCC(O)C(O)C5O)C4OC4OC(C)C(O)C(O)C4O)C(C)(C)C3CCC12C` (centres unmarked) [Compound 19], the “Cells in the subG1 phase” value (t-HSC/C1-6 cells) was 38.63%, the “cyclin D1 expression” value (t-HSC/Cl-6 cells [3]) was “decreased” and the p21 level (t-HSC/Cl-6 cells [3]) was “significant accumulation”. For the same molecule, the “Expression of phosphorylated-Akt” value (t-HSC/Cl-6 cells [3]; as time increased) was “inhibited”, the “Expression of phosphorylated-PI3K” value (t-HSC/Cl-6 cells [3]; as time increased) was “inhibited” and the “Expression level of cleaved caspase-3” value (t-HSC/Cl-6 cells [3]; [7]) was “activated”. For the same molecule, the “Expression level of cleaved caspase-9” value (t-HSC/Cl-6 cells [3]; [7]) was “activated”, the “Nuclear morphology of LO2 cells (DAPI staining)” value (LO2 cells [4]) was “did not appear to have any specific effect” and the “Cell morphology of LO2 cells” value (LO2 cells [4]; phase contrast microscopy) was “no shrinkage was seen”. The IC50 (t-HSC/Cl-6 cells [1]; [6]) was 28.1 ± 2 µM, the “Nuclear morphology of t-HSC/Cl-6 cells (DAPI staining)” value (t-HSC/Cl-6 cells [5]) was “Typical apoptotic nuclear changes were observed” and the “Cell morphology (apoptosis) of t-HSC/Cl-6 cells” value (t-HSC/Cl-6 cells [5]; phase contrast microscopy) was “apoptotic bodies and cell shrinkage were observed”. The IC50 (LO2 cells [2]; Homo sapiens, L02) was > 200 µM and the “Cytotoxicity to LO2 cells” value (LO2 cells [2]; in words) was “nontoxic”.
For `C=C(C)OCC1OC(OC2CCC3(C)C(CCC4(C)C3CCC3C(C5(O)CC(C=C(C)C)OC5O)CCC34C)C2(C)C)C(OC2OC(C)C(O)C(O)C2O)C(OC2OCC(O)C(O)C2O)C1O` (centres unmarked) [Compound 5], the IC50 (t-HSC/Cl-6 cells [1]; [6]) was > 200 µM and the IC50 (LO2 cells [2]; Homo sapiens, L02) was > 200 µM.
In the case of `CC(C)=CC1CC(O)(C2CCC3(C)C2CCC2C4(C)CCC(OC5OC(CO)C(O)C(OC6OCC(O)C(O)C6O)C5OC5OC(C)C(O)C(O)C5O)C(C)(C)C4CCC23C)C(O)O1` (centres unmarked) [Compound 8], the IC50 (t-HSC/Cl-6 cells [1]; [6]) is reported as 68.8 ± 3.2 µM and the IC50 (LO2 cells [2]; Homo sapiens, L02) is reported as > 200 µM.
With `CC(C)=CC1CC(O)(C2CCC3(C)C2CCC2C4(C)CCC(OC5OC(CO)C(O)C(OC6OCC(O)C(O)C6O)C5OC5OC(C)C(O)C(O)C5O)C(C)(C)C4CCC23C)C(=O)O1` (centres unmarked) [Compound 9] the IC50 (t-HSC/Cl-6 cells [1]; [6]) was 114 ± 7.8 µM and the IC50 (LO2 cells [2]; Homo sapiens, L02) was > 200 µM.
In the case of `CC(=O)OCC1OC(OC2CCC3(C)C(CCC4(C)C3CCC3C(C5(O)CC(C=C(C)C)OC5=O)CCC34C)C2(C)C)C(OC2OC(C)C(O)C(O)C2O)C(OC2OCC(O)C(O)C2O)C1O` (centres unmarked) [Compound 17], the IC50 (t-HSC/Cl-6 cells [1]; [6]) is reported as 66.1 ± 3.8 µM and the IC50 (LO2 cells [2]; Homo sapiens, L02) is reported as > 200 µM.
`CC(C)=CCCC(O)(CO)C1CCC2(C)C1CCC1C3(C)CCC(OC4OC(CO)C(O)C(OC5OCC(O)C(O)C5O)C4OC4OC(C)C(O)C(O)C4O)C(C)(C)C3CCC12C` (centres unmarked) [Compound 7] was tested, and the IC50 (t-HSC/Cl-6 cells [1]; [6]) was 152 ± 7.4 µM and the IC50 (LO2 cells [2]; Homo sapiens, L02) was > 200 µM.
In the case of `CC(C)=CCCC(O)(CO)C1CCC2(C)C1CCC1C3(C=O)CCC(OC4OCC(O)C(OC5OCC(O)C(O)C5O)C4OC4OC(C)C(O)C(O)C4O)C(C)(C)C3CCC12C` (centres unmarked) [Compound 11], the IC50 (t-HSC/Cl-6 cells [1]; [6]) is reported as 43.6 ± 2.7 µM and the IC50 (LO2 cells [2]; Homo sapiens, L02) is reported as > 200 µM.
`CC(C)=CCCC(O)(COC1OC(CO)C(O)C(O)C1O)C1CCC2(C)C1CCC1C3(CO)CCC(OC4OC(CO)C(O)C(OC5OCC(O)C(O)C5O)C4OC4OC(C)C(O)C(O)C4O)C(C)(C)C3CCC12C` (centres unmarked) [Compound 14] was tested, and the IC50 (t-HSC/Cl-6 cells [1]; [6]) was > 200 µM and the IC50 (LO2 cells [2]; Homo sapiens, L02) was > 200 µM.
For `CC(C)=CCCC(O)(COC1OC(CO)C(O)C(O)C1O)C1CCC2(C)C1CCC1C3(CO)CCC(OC4OCC(O)C(OC5OCC(O)C(O)C5O)C4OC4OC(C)C(O)C(O)C4O)C(C)(C)C3CCC12C` (centres unmarked) [Compound 15], the IC50 (t-HSC/Cl-6 cells [1]; [6]) was > 200 µM and the IC50 (LO2 cells [2]; Homo sapiens, L02) was > 200 µM.
For `CC(C)=CCCC(O)(COC1OC(CO)C(O)C(O)C1O)C1CCC2(C)C1CCC1C3(C)CCC(OC4OC(CO)C(O)C(OC5OCC(O)C(O)C5O)C4OC4OCC(O)C(O)C4O)C(C)(C)C3CCC12C` (centres unmarked) [Compound 1], the IC50 (t-HSC/Cl-6 cells [1]; [6]) was > 200 µM and the IC50 (LO2 cells [2]; Homo sapiens, L02) was > 200 µM.
`CCCCOC1OC(C=C(C)C)CC1(O)C1CCC2(C)C1CCC1C3(C)CCC(OC4OCC(O)C(OC5OCC(O)C(O)C5O)C4OC4OC(C)C(O)C(O)C4O)C(C)(C)C3CCC12C` (centres unmarked) [Compound 16] was tested, and the IC50 (t-HSC/Cl-6 cells [1]; [6]) was 44.7 ± 1 µM and the IC50 (LO2 cells [2]; Homo sapiens, L02) was > 200 µM.
`CC(C)=CCCC(O)(COC1OC(CO)C(O)C(O)C1O)C1CCC2(C)C1CCC1C3(C=O)CCC(OC4OCC(O)C(OC5OC(CO)C(O)C(O)C5O)C4OC4OC(C)C(O)C(O)C4O)C(C)(C)C3CCC12C` (centres unmarked) [Compound 10] was tested, and the IC50 (t-HSC/Cl-6 cells [1]; [6]) was > 200 µM and the IC50 (LO2 cells [2]; Homo sapiens, L02) was > 200 µM.
For `C=C(C)OCC1OC(OC2CCC3(C)C(CCC4(C)C3CCC3C(C5(O)CC(C=C(C)C)OC5=O)CCC34C)C2(C)C)C(OC2OC(C)C(O)C(O)C2O)C(OC2OCC(O)C(O)C2O)C1O` (centres unmarked) [Compound 4], the IC50 (t-HSC/Cl-6 cells [1]; [6]) was 126 ± 9.7 µM and the IC50 (LO2 cells [2]; Homo sapiens, L02) was > 200 µM.
